Results as given in PMC8739290, “A phase 1b study of erlotinib and momelotinib for the treatment of EGFR-mutated, tyrosine kinase inhibitor-naive metastatic non-small cell lung cancer” (Cancer Chemotherapy and Pharmacology, 2021).
Where two headings read alike, the source gives them in different places.

Experiments:
[1] = Pharmacokinetics of erlotinib during monotherapy and in combination with momelotinib (LC–MS/MS); type: in vivo, human; conditions: for Cmax: mean (%CV)
Procedure: (§1) Prior to momelotinib dosing, blood samples were collected before a dose of erlotinib and at 0.5, 1, 2, 4, 6, 8, and 24 h after erlotinib dosing. On day 15 of cycle 1, blood samples were collected at the same time points after dosing with momelotinib and erlotinib (the 24-h time point was only applicable for momelotinib QD dosing). The concentrations of momelotinib and its major metabolite GS-644603 were evaluated using a liquid chromatography-tandem mass spectrometry (LC–MS/MS) assay with solid phase extraction validated over the range of 0.5–1000 ng/mL for each analyte. The concentration of erlotinib was determined using an LC–MS/MS assay with protein precipitation validated over the range of 5–5000 ng/mL. […] Pharmacokinetic (PK) parameters were estimated using standard noncompartmental methods with Phoenix WinNonlin® software (Certara, Princeton, NJ).
(§2) Any patient who received ≥ 1 dose of study drug was included in the safety and efficacy analyses. Descriptive statistics were used to summarize study characteristics, DLTs, and AEs, including by dose level. ORR was summarized with corresponding two-sided 90% exact confidence intervals (CIs) using the binomial distribution. Both OS and PFS were summarized using Kaplan–Meier estimates and corresponding 90% CIs. Patient concentration data and PK parameters for erlotinib, momelotinib, and its major metabolite GS-644603 were summarized by dose level using descriptive statistics.

[2] = tested on: STAT3 signaling in EGFR-mutant cell lines; set-up: method as in PMID 25065853, PMID 22712764; conditions: via autocrine- and paracrine-secreted factors such as IL-6; cited from earlier work
[3] = tested on: aldehyde oxidase; set-up: method as in PMID 32393528; conditions: cited from earlier work
[4] = tested on: patients with EGFR TKI-naive, EGFR-mutated NSCLC; experiment: Safety in phase 1b dose-escalation study: DLTs and adverse events (CTCAE version 4.03)
Text: This was an open-label, dose-escalation phase 1b study, which comprised a dose-escalation phase, followed by a planned, randomized, expansion phase of the combination of erlotinib plus momelotinib vs. erlotinib alone (ClinicalTrials.gov Identifier: NCT02206763). An erlotinib lead-in was utilized during the dose-escalation phase since erlotinib’s toxicities of rash and diarrhea onset in the first 2–3 weeks of treatment allowing for (i) dose adjustment for erlotinib-related toxicities as per clinical standard of care prior to combination with momelotinib; (ii) examination of the impact of momelotinib on erlotinib steady-state pharmacokinetics; and (iii) accurate assessment of toxicity attribution during the combination treatment period.
Patients were screened within 28 days of the start of study treatment and cycles were defined as 28 days. Erlotinib was self-administered orally once daily (QD) at least 1 h before or 2 h after a meal, with doses permitted at 50, 75, 100, or 150 mg. Dose reductions were permitted for management of erlotinib-related toxicity such as rash and diarrhea. Momelotinib was dose escalated following a standard 3 + 3 design starting at 100 mg QD (Table 1). Momelotinib was self-administered orally QD or twice daily (BID) (Table 1), with the latter planned dosing frequency differing from that used in myelofibrosis trials. Study treatment continued until disease progression, unacceptable toxicity, or consent withdrawal.
The primary endpoint was the incidence of dose-limiting toxicities (DLTs). Physical exams and safety labs were performed on day 1 of cycle 1, day 15 of cycle 1, and on the first day of each cycle thereafter. Adverse events (AEs) were coded using the Medical Dictionary for Regulatory Activities (MedDRA), graded according to the Common Terminology Criteria for Adverse Events (CTCAE) version 4.03, and collected until 30 days after the last dose of the study treatment.
DLTs were assessed during the first 28 days of combined erlotinib and momelotinib treatment and defined as clinically significant AEs related to study treatment. Prespecified hematologic DLTs only included grade 4 neutropenia (absolute neutrophil count [ANC] < 500/μL) and grade 4 thrombocytopenia (platelet count < 25,000/μL). Important exceptions for related grade 3 nonhematologic toxicities included grade 3 nausea or vomiting ≤ 48 h duration, diarrhea or rash that improved to grade 0 to 1 within 21 days of interruption of erlotinib, and alanine aminotransferase (ALT) or aspartate aminotransferase (AST) ≥ 5 times the upper limit of normal (ULN) that improved to ≤ 3 times the ULN within 21 days. Treatment delays of ≥ 28 days due to a treatment-emergent AEs (TEAEs) were also considered DLTs.
as §2

[5] = tested on: patients with EGFR-mutated NSCLC; conditions: erlotinib monotherapy, cited from earlier work
[6] = tested on: patients with KRAS-mutated NSCLC; set-up: method as in PMID 30087028; conditions: cited from earlier work
[7] = tested on: pSTAT3 in IL-6–stimulated lymphocytes; experiment: pSTAT3 phospho-flow cytometry on whole blood of patients after 2 weeks on momelotinib (exploratory); type: cell-based, human; conditions: whole blood of 8 patients, data not shown
[8] = tested on: pancreatic adenocarcinoma; set-up: method as in PMID 30105668; conditions: momelotinib added to nab-paclitaxel and gemcitabine; cited from earlier work
[9] = tested on: EGFR-mutated NSCLC; experiment: Efficacy in phase 1b study per RECIST version 1.1 (ORR, DoR, PFS, OS); type: in vivo, human
Procedure: Imaging by computed tomography (CT) with contrast was performed at baseline, every 8 weeks during year 1 and every 12 weeks thereafter. If a patient had brain metastases, brain magnetic resonance imaging (MRI) was repeated on the same schedule.

[10] = tested on: JAK1/2-mediated STAT3 phosphorylation in IL-6–stimulated human peripheral blood mononuclear cells; conditions: read-out: mean half maximal effective concentration, inhibition of JAK1/2-mediated STAT3 phosphorylation; cited from earlier work
[11] = Steady-state pharmacokinetics of momelotinib and metabolite GS-644603 (LC–MS/MS, noncompartmental); type: in vivo, human; conditions: for half-life / Cmax / Tmax: day 15 of cycle 1; for half-life / Tmax: median (Q1, Q3); for Cmax: mean (%CV)
Procedure: as §1, §2

[12] = erlotinib + momelotinib, all dose levels, n = 11
[13] = randomized phase 3 study, ref 33
[14] = human, in vivo, oral, momelotinib analyte, momelotinib 100 mg QD + erlotinib, n = 2
[15] = human, in vivo, oral, momelotinib analyte, momelotinib 200 mg QD + erlotinib, n = 2
[16] = momelotinib 200 mg QD vs 100 mg QD, with erlotinib, momelotinib analyte
[17] = with erlotinib, compared with ref 35

C#Cc1cccc(Nc2ncnc3cc(OCCOC)c(OCCOC)cc23)c1 [erlotinib]
erlotinib exposure (Cmax and AUCtau), monotherapy vs combination ([1]; day 1 of cycle 1 vs day 15 of cycle 1 with momelotinib, all momelotinib dose level groups): comparable | Cmax ([1]; erlotinib monotherapy, Day 1, dose level 2A cohort, erlotinib 150 mg QD, n = 3): 2040.0 (42.5) ng/mL | Cmax ([1]; erlotinib with momelotinib 100 mg BID, Day 15, erlotinib 150 mg QD, n = 5): 1782.0 (17.3) ng/mL | Cmax ([1]; erlotinib with momelotinib 200 mg QD, Day 15, erlotinib 150 mg QD, n = 2): 1740.0 (17.9) ng/mL | Cmax ([1]; human, in vivo, oral, erlotinib monotherapy, Day 1, dose level 1 cohort, erlotinib 150 mg QD (1 patient 100 mg QD), n = 3, read-out: Cmax): 1810 ng/mL | effect on STAT3 signaling [2]: induce feedback activation of STAT3 signaling | inhibition of aldehyde oxidase [3]: potent inhibitor | patients who discontinued erlotinib due to AEs ([4]; 2 of 11 patients: grade 4 neutropenia, grade 1 hepatitis B): 18.2% | patients with dose reductions of erlotinib (all for AEs) ([4]; across all dose levels, with momelotinib): 4 patients | diarrhea considered related to erlotinib [4, 12]: 63.6% | dry skin considered related to erlotinib [4, 12]: 54.5% | paronychia considered related to erlotinib [4, 12]: 54.5% | neutropenia rate ([5]; randomized phase 3 study, ref 2): 0% | decreased neutrophils rate [5, 13]: 1.8% | neutropenia rate [5, 13]: 4.5% | neutropenia rate ([5]; randomized phase 3 study, ref 34): 6% | ANCs less than < 1000/mm^3 (grade 3 or greater) [5]: rarely observed | ORR, range over prior studies [5]: 62.7 to 83% | median PFS, range over prior studies [5]: 9.7 to 11 months

N#CCNC(=O)c1ccc(-c2ccnc(Nc3ccc(N4CCOCC4)cc3)n2)cc1 [momelotinib]
impact of momelotinib on the PK of erlotinib ([1]; momelotinib 100 mg QD, 200 mg QD, 100 mg BID): no impact | efficacy vs historical control trametinib monotherapy ([6]; momelotinib added to trametinib, KRAS-mutated NSCLC): did not improve efficacy | neutropenia ([6]; momelotinib dosed up to 150 mg BID in combination with trametinib): no neutropenia event | pSTAT3 inhibition in IL-6–stimulated lymphocytes ([7]; after 2 weeks on treatment): temporarily inhibited pSTAT3 shortly after dosing | correlation between total plasma momelotinib concentration and pSTAT3 inhibition [7]: no correlation | efficacy vs historical control chemotherapy [8]: did not improve efficacy | reductions from baseline in sum of diameters of target lesions, range ([9]; momelotinib + erlotinib, across dose levels): 23.1 to 71.7% | mean best percentage change in the sum of diameters of target lesions ([9]; momelotinib + erlotinib, across dose levels, N = 11): −42.5 ± 17.1% | overall response rate (ORR), confirmed, all partial ([9]; momelotinib + erlotinib, all dose levels, 6 of 11 patients, 90% CI 27.1–80.0): 54.5% | progressive disease (PD) as best response ([9]; momelotinib + erlotinib, 1 patient, dose level 2B): 9.1% | stable disease ([9]; momelotinib + erlotinib, 4 of 11 patients): 36.4% | median duration of response (DoR) ([9]; momelotinib + erlotinib, 90% CI 4.4–9.6): 7.2 months | median PFS ([9]; momelotinib + erlotinib, Kaplan–Meier, 90% CI 6.2–12.4): 9.2 months | median OS ([9]; momelotinib + erlotinib, data finalization April 24, 2017): not reached | longest DoR ([9]; patient at dose level 2B, momelotinib 100 mg BID + erlotinib): 11.2 months | grade 1 reactivation of hepatitis B ([4]; 1 year after start of momelotinib + erlotinib, led to discontinuation of both): 1 patient | treatment-related deaths ([4]; all dose levels, momelotinib + erlotinib): no treatment-related deaths observed | dose interruptions of momelotinib ([4]; human, in vivo): 5 n | dose reductions of momelotinib (due to AEs) ([4]; human, in vivo): 2 n | patients who discontinued momelotinib for AEs ([4]; human, in vivo): 27.3% | maximum tolerated dose (MTD) of momelotinib ([4]; in combination with standard dosing of erlotinib, 3 + 3 design, DLTs in first 28 days): 200 mg QD | EC50 [10]: 259 nM | half-life ([11]; human, blood, oral, momelotinib analyte, momelotinib 100 mg BID + erlotinib, n = 4): 8.6 h | Cmax ([11]; human, in vivo, oral, momelotinib analyte, momelotinib 100 mg BID + erlotinib, n = 4): 884 ng/mL | Cmax [11, 14]: 528 ng/mL | half-life [11, 14]: 11.8 h | Cmax [11, 15]: 852 ng/mL | half-life [11, 15]: 10.2 h | Tmax ([11]; human, in vivo, oral, momelotinib analyte, momelotinib 200 mg QD + erlotinib, n = 2, read-out: Tmax): 1.5 h | dose proportionality of Cmax [11, 16]: slightly less than dose-proportional increase | dose proportionality of exposure (AUCtau) [11, 16]: slightly more than dose-proportional increase | Tmax ([11]; momelotinib analyte, momelotinib 100 mg BID + erlotinib, n = 4): 1.0 (1.0, 1.5) h | Tmax ([11]; momelotinib analyte, momelotinib 100 mg QD + erlotinib, n = 2): 1.0 (1.0, 1.0) h | time to momelotinib peak concentration after dosing ([11]; steady state, day 15 of cycle 1, with erlotinib): 1 to 2 h | momelotinib maximum concentration and exposure compared with earlier reports [11, 17]: higher than previously reported | momelotinib terminal elimination half-life compared with earlier reports [11, 17]: prolonged
